Values quoted from earlier work as cited in US8758826B2, “Cannabinoid receptor binding agents, compositions, and methods” (Wet Inc., priority 2011, dated 2014).

Tests used:
CB2 = CB2 (Homo sapiens, UniProt P34972); conditions: higher for CB2 than CB1
[1] = system: rats with a partial urethral obstruction
histamine-induced itch = conditions: topically applied
keratinocyte = conditions: in vitro and in situ

Chain of CB2 (P34972 whole entry, species assumed): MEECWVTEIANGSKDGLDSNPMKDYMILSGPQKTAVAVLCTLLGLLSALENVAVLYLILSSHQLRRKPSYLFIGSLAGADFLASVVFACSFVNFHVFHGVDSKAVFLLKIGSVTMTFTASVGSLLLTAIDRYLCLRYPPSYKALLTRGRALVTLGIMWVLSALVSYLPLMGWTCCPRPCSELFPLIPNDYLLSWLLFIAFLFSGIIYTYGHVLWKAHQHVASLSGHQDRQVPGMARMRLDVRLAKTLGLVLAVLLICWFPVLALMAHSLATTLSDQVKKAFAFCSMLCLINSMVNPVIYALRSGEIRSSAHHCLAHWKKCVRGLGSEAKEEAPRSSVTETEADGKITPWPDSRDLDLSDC

In the case of CCCCCc1cc(O)c2c(c1)OC(C)(C)c1ccc(C)cc1-2 [Cannabinol], the “Binding affinity to CB2 than to CB1” value (CB2) is given as 10 fold.

In the case of CCCCCCC(C)(C)c1cc(O)c([C@H]2CC(=O)[C@H]3C[C@@H]2C3(C)C)c(OC(=O)/C=C/C(=O)O)c1 [Cannabinor], the Bladder emptying [1] is given as “improves bladder emptying”.

In the case of CCCCCCC(C)(C)c1cc(O)c2c(c1)OC(C)(C)[C@@H]1CC=C(CO)C[C@@H]21 [HU-210], the Histamine-induced itch (histamine-induced itch) is listed as “capable of reducing histamine-induced itch”.

For Cc1c(C(=O)NN2CCCCC2)nn(-c2ccc(Cl)cc2Cl)c1-c1ccc(Cl)cc1 [SR141716], the Sperm motility (human sperm) is listed as “enhance sperm motility”.

In the case of CCCCCc1cc(O)c2c(c1)OC(C)(C)[C@@H]1CCC(C)=C[C@@H]21 [THC, Δ9-tetrahydrocannabinol], the “Action at CB1” value (CB1) is listed as “agonist”, the “Melanin content of the hair follicle” value (hair follicle) is listed as “significantly and dose-dependently suppressed” and the Hair shaft elongation (human hair follicle) is listed as “dose-dependently inhibited”. For the same molecule, the “Intraepithelial apoptosis and premature HF regression (catagen)” value (human hair follicle) was “induced” and the “Proliferation of hair matrix keratinocytes” value (human hair follicle) was “dose-dependently inhibited”.

In the case of CCCCC/C=C\C/C=C\C/C=C\C/C=C\CCCC(=O)NCCO [anandamide, N-arachidonoylethanolamide], the Cell death (keratinocyte) is given as “induces cell death”, the Keratinocyte proliferation (keratinocyte) is given as “markedly suppresses” and the Hair shaft elongation (human hair follicle) is given as “dose-dependently inhibited”. For the same molecule, the “Intraepithelial apoptosis and premature HF regression (catagen)” value (human hair follicle) was “induced” and the “Proliferation of hair matrix keratinocytes” value (human hair follicle) was “dose-dependently inhibited”.

In the case of COc1cc(/C=C/C(=O)CC(=O)/C=C/c2ccc(O)c(OC)c2)ccc1O [curcumin], the “Apoptosis in melanoma cells” value (melanoma cells) is given as “induce apoptosis” and the “Proliferation of melanoma cells” value (melanoma cells) is given as “suppress proliferation”.
